Assay [1] concerns LNCap cells. As to the kind of experiment: Cell viability assay (CellTiterGlo). Conditions: Homo sapiens, 144 h, read-out: LNCap (IC50, nM). The format is cell-based. In general terms: ATP-based viability assays read luminescence as a measure of living cells.
The test system of assay [2] is T47D cells. As to the kind of experiment: Cell viability assay (CellTiterGlo). The format is cell-based. The note with it: Homo sapiens, 144 h, read-out: T47D (IC50, nM).
Assay [3] addresses T1, Progesterone Receptor (PR)-LBD and coactivator peptide (Homo sapiens, UniProt P06401).
T1 sequence (P06401 679-913 limits assumed): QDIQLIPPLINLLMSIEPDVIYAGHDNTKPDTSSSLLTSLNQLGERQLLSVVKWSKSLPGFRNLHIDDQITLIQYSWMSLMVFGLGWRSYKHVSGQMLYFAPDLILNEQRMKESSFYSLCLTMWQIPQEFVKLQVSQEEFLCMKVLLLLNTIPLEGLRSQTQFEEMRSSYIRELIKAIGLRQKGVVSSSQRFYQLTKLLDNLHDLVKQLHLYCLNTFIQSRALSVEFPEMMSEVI
As to the kind of experiment: PR coactivator antagonist assay. Conditions: 2.5 nM PR-LBD, 10 nM progesterone-induced fluorescence response.

The subject of assay [4] is IEC6 cells. Description: Cell viability assay (CellTiterGlo). Conditions: Rattus norvegicus, IEC-6, 144 h, read-out: IEC-6 (IC50, nM).
Description: Cell viability assay: LNCap, 22Rv1, MCF7, MDAMB361, T47D, and IEC6 cells were seeded at a density of 500-2000 cells/well in 96 well plates, and a ‘T0’ (timepoint 0) was included along with the assay plate. The plates were then incubated at 37° C., 5% CO2 in a cell culture incubator overnight. On the next day, the ‘T0’ plate was assayed using CellTiterGlo (Promega, Inc) according to the manufacturer's instructions. The appropriate compounds were diluted in DMSO and added to the assay plate (final DMSO concentration of 0.1-0.2%) on the next day. The assay plates were incubated for 6 days at 37° C., 5% CO2. After the incubation period, the plates were assayed using CellTiterGlo (Promega, Inc) according to the manufacturer's instructions and luminescence was read on the En Vision plate reader. […] GraphPadPrism was used to analyze the data and determine GI50/IC50 values.
The target of assay [5] is T2, AR (cytosol from LnCaP cells) (Homo sapiens, UniProt P10275, T878A).
T2 sequence (P10275 1-920 T878A): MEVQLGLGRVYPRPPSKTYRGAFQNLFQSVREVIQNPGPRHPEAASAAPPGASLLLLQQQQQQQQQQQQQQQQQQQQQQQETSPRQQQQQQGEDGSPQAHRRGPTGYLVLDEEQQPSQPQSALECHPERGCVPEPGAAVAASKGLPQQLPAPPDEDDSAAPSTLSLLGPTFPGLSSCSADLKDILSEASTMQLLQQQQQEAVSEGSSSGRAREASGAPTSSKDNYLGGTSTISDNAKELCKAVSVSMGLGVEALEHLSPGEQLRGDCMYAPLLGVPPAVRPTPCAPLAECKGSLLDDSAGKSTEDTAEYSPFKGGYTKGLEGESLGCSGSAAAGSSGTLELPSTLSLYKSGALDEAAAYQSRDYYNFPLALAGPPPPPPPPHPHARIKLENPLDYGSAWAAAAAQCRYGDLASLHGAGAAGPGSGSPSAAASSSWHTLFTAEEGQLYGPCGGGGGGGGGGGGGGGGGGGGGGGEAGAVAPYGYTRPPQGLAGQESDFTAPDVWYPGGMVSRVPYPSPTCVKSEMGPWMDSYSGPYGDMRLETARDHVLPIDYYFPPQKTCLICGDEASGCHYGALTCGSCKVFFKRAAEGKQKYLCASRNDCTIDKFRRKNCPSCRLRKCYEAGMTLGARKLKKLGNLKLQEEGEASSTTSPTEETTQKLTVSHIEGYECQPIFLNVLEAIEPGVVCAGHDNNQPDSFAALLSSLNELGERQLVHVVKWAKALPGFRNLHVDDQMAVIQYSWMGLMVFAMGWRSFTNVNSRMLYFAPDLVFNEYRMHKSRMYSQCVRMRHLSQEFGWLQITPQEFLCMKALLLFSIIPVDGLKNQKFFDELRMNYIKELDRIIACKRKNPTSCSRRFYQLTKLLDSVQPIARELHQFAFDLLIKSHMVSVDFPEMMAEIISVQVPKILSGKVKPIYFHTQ
Description: AR binding assay (3H-R1881 displacement).
Description: The plate was then centrifuged at 3000 rpm for 30 minutes at 4° C.

In assay [6] the target is T3, ligand binding domain of the glucocorticoid receptor (HEK293 cells stably expressing) (Homo sapiens, UniProt P04150).
T3 sequence (P04150 524-758 limits assumed): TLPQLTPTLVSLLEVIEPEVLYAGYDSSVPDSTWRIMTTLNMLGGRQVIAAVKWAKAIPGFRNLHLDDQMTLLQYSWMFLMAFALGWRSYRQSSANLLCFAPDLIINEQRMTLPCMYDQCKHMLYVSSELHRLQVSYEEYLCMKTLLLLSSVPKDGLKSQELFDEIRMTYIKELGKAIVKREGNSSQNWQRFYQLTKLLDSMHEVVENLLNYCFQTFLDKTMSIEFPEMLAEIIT
As to the kind of experiment: GR antagonism assay (luciferase reporter).
Description: HEK293 cells stably expressing the ligand binding domain of the glucocorticoid receptor were seeded at a density of 40000 cells/well in the assay plate. The assay plate was then incubated at 37° C., 5% CO2 for 30 minutes. Dexamethasone was added to the assay plate at 1.5 nM final concentration and the assay plate incubated at 37° C., 5% CO2 for 20 h. After the incubation period, Dual-glo luciferase reagent was added to the assay plate and mixed at room temperature for 20 minutes on an orbital shaker, before reading out on the En Vision plate reader. 50 μL of Stop & Glo reagent was added to assay plate, mixed at room temperature for 20 minutes, and read on the Envision plate reader.

In assay [7] the target is T4, GR (cytosol from IM-9 cells) (Homo sapiens, UniProt P04150).
T4 sequence (P04150 1-777): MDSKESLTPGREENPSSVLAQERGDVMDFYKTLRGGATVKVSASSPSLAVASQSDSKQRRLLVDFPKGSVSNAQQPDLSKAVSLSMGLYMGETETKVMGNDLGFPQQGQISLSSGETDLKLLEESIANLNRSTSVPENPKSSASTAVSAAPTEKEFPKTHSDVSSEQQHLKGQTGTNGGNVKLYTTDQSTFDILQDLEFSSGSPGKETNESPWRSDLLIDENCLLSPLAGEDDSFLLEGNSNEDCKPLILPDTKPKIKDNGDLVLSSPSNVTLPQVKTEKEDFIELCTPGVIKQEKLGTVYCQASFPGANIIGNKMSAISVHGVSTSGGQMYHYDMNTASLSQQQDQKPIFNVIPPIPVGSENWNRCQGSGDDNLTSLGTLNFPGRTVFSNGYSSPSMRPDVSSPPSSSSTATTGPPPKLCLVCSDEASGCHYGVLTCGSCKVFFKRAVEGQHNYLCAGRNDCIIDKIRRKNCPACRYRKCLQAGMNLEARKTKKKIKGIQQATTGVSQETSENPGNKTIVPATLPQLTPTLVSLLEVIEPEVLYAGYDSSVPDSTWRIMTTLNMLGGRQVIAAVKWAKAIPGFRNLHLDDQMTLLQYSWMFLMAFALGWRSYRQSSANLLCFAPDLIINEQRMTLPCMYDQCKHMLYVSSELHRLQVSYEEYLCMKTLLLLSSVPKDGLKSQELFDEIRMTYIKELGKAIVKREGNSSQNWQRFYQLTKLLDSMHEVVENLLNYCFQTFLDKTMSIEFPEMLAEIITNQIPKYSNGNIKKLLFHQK
As to the kind of experiment: GR binding assay (3H-Dexamethasone displacement).

Assay [8] has as its target T5, Progesterone PR-B receptors from human breast carcinoma T47D cells (Homo sapiens, UniProt P06401).
T5 sequence (P06401 1-933): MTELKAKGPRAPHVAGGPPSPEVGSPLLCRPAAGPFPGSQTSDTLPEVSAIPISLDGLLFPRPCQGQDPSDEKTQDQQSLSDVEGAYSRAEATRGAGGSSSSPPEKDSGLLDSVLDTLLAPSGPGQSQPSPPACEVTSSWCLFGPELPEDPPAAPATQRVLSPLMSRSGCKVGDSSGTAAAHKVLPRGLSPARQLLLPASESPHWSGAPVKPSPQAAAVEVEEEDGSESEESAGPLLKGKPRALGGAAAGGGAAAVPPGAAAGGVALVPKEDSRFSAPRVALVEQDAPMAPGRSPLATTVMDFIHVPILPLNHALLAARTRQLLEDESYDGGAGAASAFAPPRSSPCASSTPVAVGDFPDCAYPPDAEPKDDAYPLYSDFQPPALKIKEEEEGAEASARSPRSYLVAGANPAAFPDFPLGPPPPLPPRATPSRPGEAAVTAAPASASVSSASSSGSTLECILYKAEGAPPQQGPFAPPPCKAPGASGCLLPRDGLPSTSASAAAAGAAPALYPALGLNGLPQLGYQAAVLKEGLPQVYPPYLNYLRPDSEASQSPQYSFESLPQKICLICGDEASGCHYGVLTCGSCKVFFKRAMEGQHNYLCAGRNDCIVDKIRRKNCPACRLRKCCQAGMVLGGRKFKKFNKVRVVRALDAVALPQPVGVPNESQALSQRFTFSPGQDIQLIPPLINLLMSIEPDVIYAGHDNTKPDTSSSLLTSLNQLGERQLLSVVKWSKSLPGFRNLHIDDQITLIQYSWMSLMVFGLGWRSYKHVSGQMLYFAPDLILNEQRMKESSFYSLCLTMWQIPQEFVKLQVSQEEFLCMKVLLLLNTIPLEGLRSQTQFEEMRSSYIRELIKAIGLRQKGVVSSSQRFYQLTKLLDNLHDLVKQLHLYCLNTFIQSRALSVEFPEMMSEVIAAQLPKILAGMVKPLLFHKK
As to the kind of experiment: PR binding assay ([3H] Progesterone displacement).

As for `CCCCCCC(=O)O[C@]1(CC)C(=O)OCc2c1cc1n(c2=O)Cc2cc3c(CN(C)C)c(OC(=O)N4CCN(CCCCCCN(C)c5ccc([C@H]6C[C@@]7(C)[C@@H](CC[C@]7(OC(C)=O)C(C)=O)[C@@H]7CCC8=CC(=O)CCC8=C76)cc5)CC4)ccc3nc2-1` [Compound No. 12, (S)-10-((Dimethylamino)methyl)-4-ethyl-4-(heptanoyloxy)-3,14-dioxo-3,4,12,14-tetrahydro-1H-pyrano[3′,4′:6,7]indolizino[1,2-b]quinolin-9-yl 4-(6-((4-((8S,11R,13S,14S,17R)-17-acetoxy-17-acetyl-13-methyl-3-oxo-2,3,6,7,8,11,12,13,14,15,16,17-dodecahydro-1H-cyclopenta[a]phenanthren-11-yl)phenyl)(methyl)amino)hexyl)piperazine-1-carboxylate], the IC50 (commonly the point on the concentration scale where inhibition reaches its midpoint) in assay [1] was > 1000 nM; in assay [2], > 1000 nM; in assay [4], > 1000 nM; in assay [5], 101 to 1000 nM; in assay [6], 10 to 100 nM; in assay [7] it was < 10 nM. Further, in assay [8], the IC50 is < 10 nM. In addition, the PR antagonism result in assay [3] was “a (IC50 =< 10 nM)”.
As to `CC[C@@]1(O)C(=O)OCc2c1cc1n(c2=O)Cc2cc3c(CN(C)C)c(OC(=O)N4CCN(CCCCCN(C)c5ccc([C@H]6C[C@@]7(C)[C@@H](CC[C@]7(OC(C)=O)C(C)=O)[C@@H]7CCC8=CC(=O)CCC8=C76)cc5)CC4)ccc3nc2-1` [Compound 8, (S)-10-((Dimethylamino)methyl)-4-ethyl-4-hydroxy-3,14-dioxo-3,4,12,14-tetrahydro-1H-pyrano[3′,4′:6,7]indolizino[1,2-b]quinolin-9-yl 4-(5-((4-((8S,11R,13S,14S,17R)-17-acetoxy-17-acetyl-13-methyl-3-oxo-2,3,6,7,8,11,12,13,14,15,16,17-dodecahydro-1H-cyclopenta[a]phenanthren-11-yl)phenyl)(methyl)amino)pentyl)piperazine-1-carboxylate], the IC50 in assay [1] was 101 to 1000 nM; in assay [2] it was 10 to 100 nM; in assay [4], 101 to 1000 nM; in assay [5], < 10 nM; in assay [6], 10 to 100 nM; in assay [7], 10 to 100 nM. In addition, in assay [8], the half-maximal inhibitory concentration (IC50) is < 10 nM. Further, the PR antagonism result in assay [3] was “a (IC50 =< 10 nM)”.
Take `CC[C@@]1(O)C(=O)OCc2c1cc1n(c2=O)Cc2cc3c(CN4CCN(C)CC4)c(OC(=O)N4CCN(CCCCCCN(C)c5ccc([C@H]6C[C@@]7(C)[C@@H](CC[C@]7(OC(C)=O)C(C)=O)[C@@H]7CCC8=CC(=O)CCC8=C76)cc5)CC4)ccc3nc2-1` [Compound 5, (S)-4-Ethyl-4-hydroxy-10-((4-methylpiperazin-1-yl)methyl)-3,14-dioxo-3,4,12,14-tetrahydro-1H-pyrano[3′,4′:6,7]indolizino[1,2-b]quinolin-9-yl 4-(6-((4-((8S,11R,13S,14S,17R)-17-acetoxy-17-acetyl-13-methyl-3-oxo-2,3,6,7,8,11,12,13,14,15,16,17-dodecahydro-1H-cyclopenta[a]phenanthren-11-yl)phenyl)(methyl)amino)hexyl)piperazine-1-carboxylate]: the half-inhibitory concentration (IC50) is 101 to 1000 nM in assay [1]; 101 to 1000 nM in assay [2]; > 1000 nM in assay [4]; 10 to 100 nM in assay [5]; 10 to 100 nM in assay [6]; < 10 nM in assay [7]. Further, the 50% inhibitory concentration (IC50) in assay [8] is < 10 nM. The PR antagonism result in assay [3] is recorded as “a (IC50 =< 10 nM)”.
In the case of `CC[C@@]1(O)C(=O)OCc2c1cc1n(c2=O)Cc2cc3c(CN(C)C)c(OC(=O)N4CCN(CCCCCCCCN(C)c5ccc([C@H]6C[C@@]7(C)[C@@H](CC[C@]7(OC(C)=O)C(C)=O)[C@@H]7CCC8=CC(=O)CCC8=C76)cc5)CC4)ccc3nc2-1` [Compound 7, (S)-10-((Dimethylamino)methyl)-4-ethyl-4-hydroxy-3,14-dioxo-3,4,12,14-tetrahydro-1H-pyrano[3′,4′:6,7]indolizino[1,2-b]quinolin-9-yl 4-(8-((4-((8S,11R,13S,14S,17R)-17-acetoxy-17-acetyl-13-methyl-3-oxo-2,3,6,7,8,11,12,13,14,15,16,17-dodecahydro-1H-cyclopenta[a]phenanthren-11-yl)phenyl)(methyl)amino)octyl)piperazine-1-carboxylate], the IC50 in assay [1] is 101 to 1000 nM; in assay [2] it was 101 to 1000 nM; in assay [4] it was > 1000 nM; in assay [5] it was 10 to 100 nM; in assay [6], 10 to 100 nM; in assay [7], < 10 nM. In addition, the 50% inhibitory concentration (IC50) in assay [8] is < 10 nM. For the same molecule, the PR antagonism result in assay [3] is recorded as “a (IC50 =< 10 nM)”.
